# Test results: PubChem BioAssay (NCI)
#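 Test compounds were applied to cells in 96-well plates for 48 hours at 5 doses. The concentration for full growth arrest is given as TGI.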
# Columns and labels:
# Experiment in all cases: NCI tumour cell line growth inhibition, 48 h
# 786-0 renal = test system: 786-0 renal
# HOP-62 NSCLC = test system: HOP-62 NSCLC
# KM20L2 colon = test system: KM20L2 colon
# SNB-19 CNS = test system: SNB-19 CNS
# SN12K1 renal = test system: SN12K1 renal
# HOP-92 NSCLC = test system: HOP-92 NSCLC
# SK-MEL-28 melanoma = test system: SK-MEL-28 melanoma
# MDA-MB-435 = test system: MDA-MB-435
# MALME-3M melanoma = test system: MALME-3M melanoma
# HCT-116 colon = test system: HCT-116 colon
# HS 578T breast = test system: HS 578T breast
# OVCAR-8 ovarian = test system: OVCAR-8 ovarian
# COLO 205 colon = test system: COLO 205 colon
# OVCAR-5 ovarian = test system: OVCAR-5 ovarian
# LXFL 529 NSCLC = test system: LXFL 529 NSCLC
# MCF7 breast = test system: MCF7 breast
# SK-OV-3 ovarian = test system: SK-OV-3 ovarian
# SNB-75 CNS = test system: SNB-75 CNS
# ACHN renal = test system: ACHN renal
# EKVX NSCLC = test system: EKVX NSCLC
# KM12 colon = test system: KM12 colon
# OVCAR-4 ovarian = test system: OVCAR-4 ovarian
# MOLT-4 leukemia = test system: MOLT-4 leukemia
# NCI/ADR-RES ovarian = test system: NCI/ADR-RES ovarian
# SR leukemia = test system: SR leukemia
# CCRF-CEM leukemia = test system: CCRF-CEM leukemia
# SW-620 colon = test system: SW-620 colon
# RXF-631 renal = test system: RXF-631 renal
# RPMI-8226 leukemia = test system: RPMI-8226 leukemia
# BT-549 breast = test system: BT-549 breast
# SNB-78 CNS = test system: SNB-78 CNS
# HT29 colon = test system: HT29 colon
# P388 leukemia = test system: P388 leukemia
# SK-MEL-5 melanoma = test system: SK-MEL-5 melanoma
# K-562 leukemia = test system: K-562 leukemia
# PC-3 prostate = test system: PC-3 prostate
# SF-539 CNS = test system: SF-539 CNS
# DU-145 prostate = test system: DU-145 prostate
# UACC-62 melanoma = test system: UACC-62 melanoma
# HCC-2998 colon = test system: HCC-2998 colon
# HOP-18 NSCLC = test system: HOP-18 NSCLC
# NCI-H522 lung = test system: NCI-H522 lung
# HL-60(TB) leukemia = test system: HL-60(TB) leukemia
# U251 CNS = test system: U251 CNS
# UO-31 renal = test system: UO-31 renal
# MDA-N = test system: MDA-N
# NCI-H460 lung = test system: NCI-H460 lung
# P388/ADR leukemia = test system: P388/ADR leukemia
# DMS 273 small cell lung = test system: DMS 273 small cell lung
# A549 NSCLC = test system: A549 NSCLC
# NCI-H226 lung = test system: NCI-H226 lung
# M14 melanoma = test system: M14 melanoma
# SK-MEL-2 melanoma = test system: SK-MEL-2 melanoma
# T-47D breast = test system: T-47D breast
# IGROV1 ovarian = test system: IGROV1 ovarian
# M19-MEL melanoma = test system: M19-MEL melanoma
# OVCAR-3 ovarian = test system: OVCAR-3 ovarian
# SF-295 CNS = test system: SF-295 CNS
# HCT-15 colon = test system: HCT-15 colon
# SF-268 CNS = test system: SF-268 CNS
# RXF 393 renal = test system: RXF 393 renal
# NCI-H23 lung = test system: NCI-H23 lung
# TK-10 renal = test system: TK-10 renal
# LOX IMVI melanoma = test system: LOX IMVI melanoma
# SN12C renal = test system: SN12C renal
# A498 renal = test system: A498 renal
# DMS 114 small cell lung = test system: DMS 114 small cell lung
# DLD-1 colon = test system: DLD-1 colon
# CAKI-1 renal = test system: CAKI-1 renal
# UACC-257 melanoma = test system: UACC-257 melanoma
# MDA-MB-231 breast = test system: MDA-MB-231 breast
structure (smiles),measurement,setting,value
CCOC(=O)/C(=C\c1ccccc1)C(=O)CCN1CCOCC1,TGI,786-0 renal,21.9 µM
same,TGI,HOP-62 NSCLC,40.8 µM
same,TGI,KM20L2 colon,30.9 µM
same,TGI,SNB-19 CNS,51.5 µM
same,TGI,SN12K1 renal,19.4 µM
same,TGI,HOP-92 NSCLC,17.2 µM
same,TGI,SK-MEL-28 melanoma,10.1 µM
same,TGI,MDA-MB-435,40.1 µM
same,TGI,MALME-3M melanoma,7.85 µM
same,TGI,HCT-116 colon,34.9 µM
same,TGI,HS 578T breast,> 100 µM
same,TGI,OVCAR-8 ovarian,18.4 µM
same,TGI,COLO 205 colon,8.93 µM
same,TGI,OVCAR-5 ovarian,31.8 µM
same,TGI,LXFL 529 NSCLC,3.52 µM
same,TGI,MCF7 breast,23.8 µM
same,TGI,SK-OV-3 ovarian,50.5 µM
same,TGI,SNB-75 CNS,38.3 µM
same,TGI,ACHN renal,13.4 µM
same,TGI,EKVX NSCLC,34.7 µM
same,TGI,KM12 colon,23.1 µM
same,TGI,OVCAR-4 ovarian,33.6 µM
same,TGI,MOLT-4 leukemia,5.3 µM
same,TGI,NCI/ADR-RES ovarian,32.5 µM
same,TGI,SR leukemia,9.11 µM
same,TGI,CCRF-CEM leukemia,3.95 µM
same,TGI,SW-620 colon,5.19 µM
same,TGI,RXF-631 renal,28.8 µM
same,TGI,RPMI-8226 leukemia,6.07 µM
same,TGI,BT-549 breast,33.6 µM
same,TGI,SNB-78 CNS,36.5 µM
same,TGI,HT29 colon,25.1 µM
same,TGI,P388 leukemia,3.66 µM
same,TGI,SK-MEL-5 melanoma,25.3 µM
same,TGI,K-562 leukemia,4.87 µM
same,TGI,PC-3 prostate,24.7 µM
same,TGI,SF-539 CNS,16 µM
same,TGI,DU-145 prostate,39.2 µM
same,TGI,UACC-62 melanoma,12.5 µM
same,TGI,HCC-2998 colon,32.6 µM
same,TGI,HOP-18 NSCLC,28.6 µM
same,TGI,NCI-H522 lung,3.43 µM
same,TGI,HL-60(TB) leukemia,3.38 µM
same,TGI,U251 CNS,21.6 µM
same,TGI,UO-31 renal,31.2 µM
same,TGI,MDA-N,18.7 µM
same,TGI,NCI-H460 lung,30 µM
same,TGI,P388/ADR leukemia,> 21.7 µM
same,TGI,DMS 273 small cell lung,27.3 µM
same,TGI,A549 NSCLC,53.1 µM
same,TGI,NCI-H226 lung,45.9 µM
same,TGI,M14 melanoma,18 µM
same,TGI,SK-MEL-2 melanoma,42.4 µM
same,TGI,T-47D breast,40.5 µM
same,TGI,IGROV1 ovarian,29.9 µM
same,TGI,M19-MEL melanoma,11.8 µM
same,TGI,OVCAR-3 ovarian,18.6 µM
same,TGI,SF-295 CNS,38.3 µM
same,TGI,HCT-15 colon,9.63 µM
same,TGI,SF-268 CNS,27.8 µM
same,TGI,RXF 393 renal,6.09 µM
same,TGI,NCI-H23 lung,24.9 µM
same,TGI,TK-10 renal,19.9 µM
same,TGI,LOX IMVI melanoma,8.54 µM
same,TGI,SN12C renal,19.7 µM
same,TGI,A498 renal,31.1 µM
same,TGI,DMS 114 small cell lung,14.6 µM
same,TGI,DLD-1 colon,6.96 µM
same,TGI,CAKI-1 renal,9.51 µM
same,TGI,UACC-257 melanoma,11 µM
same,TGI,MDA-MB-231 breast,27.1 µM
